Results reported in publication PMC2965769 (PLoS Pathogens, 2010).
*: point of attachment. X2 = CC(C)CCC[C@@H](C)[C@H]1CC[C@H]2[C@@H]3CC=C4C[C@@H](OC(=O)CCOCCOCCOCCOCCNC(=O)C*)CC[C@]4(C)[C@H]3CC[C@]12C; X1 = CC(C)CCC[C@@H](C)[C@H]1CC[C@H]2[C@@H]3CC=C4C[C@@H](OC(=O)C*)CC[C@]4(C)[C@H]3CC[C@]12C

Test system: NiV G/F pseudotyped viruses
Details: 24 h

| Substance | IC50 [nM] |
| --- | --- |
| Ac-VALDPIDISIVLNKAKSDLEESKEWIRRSNQKLDSIGSGSGC(X1)-NH2 (N-terminus and C-terminus assumed) [V-chol] | ~0.02 |
| Ac-VALDPIDISIVLNKAKSDLEESKEWIRRSNQKLDSIGSGSGC(X2)-NH2 (N-terminus and C-terminus assumed) [V-PEG4-chol] | ~0.02 |
